Measured values: article PMC3762829 (PLoS ONE, 2013)
“And” between values parts separate entries of the source, which are not always exact repeats. Equal values may be shown once. Read-outs that look alike come from different tables or passages of the source.

Key:
[1] = test system: HSA glycation by DHA; format: biochemical, human; settings: HSA + 20 mM DHA
From the text: The method of Rahbar et al., was followed with slight modifications for the determination of percent of AGEs formed [26].

[2] = test system: hemoglobin; set-up: method as in PMID 14568007; settings: cited from earlier work
[3] = test system: GK peptide cross linking in the presence of ribose; assay: N-acetyl-glycyl-lysine methyl ester (GK peptide)-ribose assay, late glycation products; format: biochemical
Protocol: GK-peptide-ribose assay was performed with slight modifications from the previously published method. […] The fluorescence of the mixture was read at 340 nm excitation wavelength and 420 nm emission wavelengths using a Shimadzu RF-5301 spectrofluorometer.

[4] = test system: MG-mediated HSA glycation; settings: 14 days
From the text: The % inhibition of AGEs formation = [1 −(fluorescence of the test group/fluorescence of the control group)] × 100.

[5] = test system: platelets
From the text: Platelet rich plasma was obtained from the supernatant resulting from the centrifugation of blood at 200 g at room temperature.

[6] = test system: HbA1C formation (hemoglobin); assay: Hemoglobin-δ-gluconolactone (δ-Glu) assay, early stage glycation; format: biochemical, human
Protocol: The Hemoglobin-δ-gluconolactone (δ-Glu) assay was performed as per previously published procedure. All the blood samples were analyzed in triplicates. The percent inhibition of HbA1C formation by the compound was calculated by: (B-C)/(B-A)X100, where A is HbA1C concentration in the baseline control tube not treated with δ-Glu, B is the HbA1C content of the test tube treated with δ-Glu, and C is the HbA1C levels in the sample treated with both δ-Glu and the compound under study.

N=C(N)NN [AG, aminoguanidine]
inhibition of fluorescence associated with AGE product formation ([1]; 10 mM): 70.1% | effect on hemoglobin glycation [2]: no significant effect | inhibition of late glycation products ([3]; 10 mM): 60% | inhibition of MG-catalysed HSA glycation ([4]; 10 mM, 40 mM MG, 37°C): 49% | total lactate dehydrogenase released in the incubation medium ([5]; 10 mM, incubation time 0 min): 0±0.000% | total lactate dehydrogenase released in the incubation medium ([5]; 10 mM, incubation time 30 min): 2.86±0.413% | total lactate dehydrogenase released in the incubation medium ([5]; 10 mM, incubation time 60 min): 4.23±0.432% | total lactate dehydrogenase released in the incubation medium ([5]; 10 mM, incubation time 90 min): 5.81±0.134% | total lactate dehydrogenase released in the incubation medium ([5]; 10 mM, incubation time 120 min): 6.63±0.232% | inhibition in the formation of HbA1c ([6]; 10 mM): 15%

CN(C)C(=N)N=C(N)N [MF, metformin]
inhibition of late glycation end products ([3]; 200 µM, 14 day period): 66% | cytotoxicity (LDH leakage), in words ([5]; 200 µM): not cytotoxic | total lactate dehydrogenase released in the incubation medium ([5]; 200 µM, incubation time 0 min): 0±0.000% | total lactate dehydrogenase released in the incubation medium ([5]; 200 µM, incubation time 30 min): 1.23±0.232% | total lactate dehydrogenase released in the incubation medium ([5]; 200 µM, incubation time 60 min): 2.23±0.331% | total lactate dehydrogenase released in the incubation medium ([5]; 200 µM, incubation time 90 min): 3.56±0.237% | total lactate dehydrogenase released in the incubation medium ([5]; 200 µM, incubation time 120 min): 4.23% and 4.23±0.352% | total lactate dehydrogenase released in the incubation medium ([5]; 225 µM, incubation time 120 min): 4.51±0.312% | total lactate dehydrogenase released in the incubation medium ([5]; 250 µM, incubation time 120 min): 5.63±0.563% | total lactate dehydrogenase released in the incubation medium ([5]; 300 µM, incubation time 120 min): 6.37±0.349% | cytotoxicity (LDH leakage), in words ([5]; above 200 µM): highly cytotoxic | inhibition in the formation of HbA1c ([6]; 10 µM): 11.6% | inhibition in the formation of HbA1c ([6]; 100 µM): 17.1% | inhibition in the formation of HbA1c ([6]; 500 µM): 23.3% | inhibition in the formation of HbA1c ([6]; 1000 µM, simultaneous incubation): 28.1% | inhibition of the formation of fluorescent products ([6]; pre-incubation of fresh blood with 1000 µM for 24 h, then δ-gluconolactone): 30.3%

Cc1ncc(CO)c(CN)c1O [PM, pyridoxamine]
inhibition of post-Amadori glycation and AGE formation ([1]; 20 mM): 78.4% | inhibition of late glycation end products ([3]; 20 mM): 79% | inhibition of MG-catalysed HSA glycation ([4]; human, 10 mM, pH 7.4): 54% | inhibition of MG-catalysed HSA glycation ([4]; human, 20 mM, pH 7.4): 69% | total lactate dehydrogenase released in the incubation medium ([5]; human, 0 min, 20 mM): 0±0.000% | total lactate dehydrogenase released in the incubation medium ([5]; human, 30 min, 20 mM): 1.23±0.235% | total lactate dehydrogenase released in the incubation medium ([5]; human, 60 min, 20 mM): 2.11±0.230% | total lactate dehydrogenase released in the incubation medium ([5]; human, 90 min, 20 mM): 3.23±0.212% | total lactate dehydrogenase released in the incubation medium ([5]; human, 120 min, 22 mM): 3.92±0.683% | total lactate dehydrogenase released in the incubation medium ([5]; human, 120 min, 25 mM): 4.14±0.334% | inhibition in the formation of HbA1c ([6]; 1 mM): 9.1% | inhibition in the formation of HbA1c ([6]; 5 mM): 20.4% | inhibition in the formation of HbA1c ([6]; 10 mM): 29.3% | inhibition in the formation of HbA1c ([6]; 20 mM): 41.1% | inhibition of the formation of fluorescent products ([6]; pre-incubation of fresh blood with 20 mM for 24 h, then δ-gluconolactone): 47% | inhibition of the formation of fluorescent products ([6]; simultaneous incubation of whole blood, δ-gluconolactone and 10 mM (so in the source), data not shown): 41%
